# Reference: ChEMBL document CHEMBL3526135, “Induction of xenobiotic receptors, transporters, and drug metabolizing enzymes by oxycodone” (Drug Metab Dispos, 2013)
# Experiments:
# Format in all cases: ADME, organism-based
# Parameters in all cases: dose 15 mg/kg, route intraperitoneal
# Slc39a4 = test: Effect on Slc39a4 mRNA expression in Sprague-Dawley rat liver at 15 mg/kg, ip administered twice daily every 12 hrs for 8 days by microarray analysis relative to control; settings: read-out: FC
# CYP4a10 = test: Effect on CYP4a10 mRNA expression in Sprague-Dawley rat liver at 15 mg/kg, ip administered twice daily every 12 hrs for 8 days by microarray analysis relative to control; settings: read-out: FC
# Rattus norvegicus [1] = test: Effect on AhR mRNA expression in Sprague-Dawley rat liver at 15 mg/kg, ip administered twice daily every 12 hrs for 8 days by qRT-PCR analysis relative to control; settings: in vivo
# CYP2e1 = test: Effect on CYP2e1 mRNA expression in Sprague-Dawley rat liver at 15 mg/kg, ip administered twice daily every 12 hrs for 8 days by microarray analysis relative to control; settings: read-out: FC
# AhR = test: Effect on AhR mRNA expression in Sprague-Dawley rat liver at 15 mg/kg, ip administered twice daily every 12 hrs for 8 days by microarray analysis relative to control; settings: read-out: FC
# Rattus norvegicus [2] = test: Effect on Slc38a4 mRNA expression in Sprague-Dawley rat liver at 15 mg/kg, ip administered twice daily every 12 hrs for 8 days by qRT-PCR analysis relative to control; settings: in vivo
# CYP2b2 [3] = test: Upregulation of CYP2b2 protein expression in Sprague-Dawley rat liver microsomes at 15 mg/kg, ip administered twice daily every 12 hrs for 8 days by Western blot analysis relative to control; settings: read-out: FC
# Slc2a2 = test: Effect on Slc2a2 mRNA expression in Sprague-Dawley rat liver at 15 mg/kg, ip administered twice daily every 12 hrs for 8 days by microarray analysis relative to control; settings: read-out: FC
# Rattus norvegicus [4] = test: Effect on CYP2d2 mRNA expression in Sprague-Dawley rat liver at 15 mg/kg, ip administered twice daily every 12 hrs for 8 days by qRT-PCR analysis relative to control; settings: in vivo
# CYP2b2 [5] = test: Effect on CYP2b2 mRNA expression in Sprague-Dawley rat liver at 15 mg/kg, ip administered twice daily every 12 hrs for 8 days by microarray analysis relative to control; settings: read-out: FC
# Slc21a10 = test: Effect on Slc21a10 mRNA expression in Sprague-Dawley rat liver at 15 mg/kg, ip administered twice daily every 12 hrs for 8 days by microarray analysis relative to control; settings: read-out: FC
# Slc17a5 = test: Effect on Slc17a5 mRNA expression in Sprague-Dawley rat liver at 15 mg/kg, ip administered twice daily every 12 hrs for 8 days by microarray analysis relative to control; settings: read-out: FC
# Ces2 = test: Effect on Ces2 mRNA expression in Sprague-Dawley rat liver at 15 mg/kg, ip administered twice daily every 12 hrs for 8 days by microarray analysis relative to control; settings: read-out: FC
# Slc38a4 = test: Effect on Slc38a4 mRNA expression in Sprague-Dawley rat liver at 15 mg/kg, ip administered twice daily every 12 hrs for 8 days by microarray analysis relative to control; settings: read-out: FC
# Rattus norvegicus [6] = test: Effect on Abcb1a mRNA expression in Sprague-Dawley rat liver at 15 mg/kg, ip administered twice daily every 12 hrs for 8 days by qRT-PCR analysis relative to control; settings: in vivo
# CYP27a1 = test: Effect on CYP27a1 mRNA expression in Sprague-Dawley rat liver at 15 mg/kg, ip administered twice daily every 12 hrs for 8 days by microarray analysis relative to control; settings: read-out: FC
# CYP2a1 = test: Effect on CYP2a1 mRNA expression in Sprague-Dawley rat liver at 15 mg/kg, ip administered twice daily every 12 hrs for 8 days by microarray analysis relative to control; settings: read-out: FC
# Yc2/Gsta5 = test: Effect on Yc2/Gsta5 mRNA expression in Sprague-Dawley rat liver at 15 mg/kg, ip administered twice daily every 12 hrs for 8 days by microarray analysis relative to control; settings: read-out: FC
# Slc25a29 = test: Effect on Slc25a29 mRNA expression in Sprague-Dawley rat liver at 15 mg/kg, ip administered twice daily every 12 hrs for 8 days by microarray analysis relative to control; settings: read-out: FC
# NR1I3 = test: Effect on NR1I3 mRNA expression in Sprague-Dawley rat liver at 15 mg/kg, ip administered twice daily every 12 hrs for 8 days by microarray analysis relative to control; settings: read-out: FC
# Ugt1a1 = test: Effect on Ugt1a1 mRNA expression in Sprague-Dawley rat liver at 15 mg/kg, ip administered twice daily every 12 hrs for 8 days by microarray analysis relative to control; settings: read-out: FC
# Rattus norvegicus [7] = test: Effect on CAR mRNA expression in Sprague-Dawley rat liver at 15 mg/kg, ip administered twice daily every 12 hrs for 8 days by qRT-PCR analysis relative to control; settings: in vivo
# Rattus norvegicus [8] = test: Effect on CYP3a1 mRNA expression in Sprague-Dawley rat liver at 15 mg/kg, ip administered twice daily every 12 hrs for 8 days by qRT-PCR analysis relative to control; settings: in vivo
# CYP3A1 = test: Upregulation of CYP3A1 protein expression in Sprague-Dawley rat liver microsomes at 15 mg/kg, ip administered twice daily every 12 hrs for 8 days by Western blot analysis relative to control; settings: read-out: FC
# Abcg5 = test: Effect on Abcg5 mRNA expression in Sprague-Dawley rat liver at 15 mg/kg, ip administered twice daily every 12 hrs for 8 days by microarray analysis relative to control; settings: read-out: FC
# Slc37a4 = test: Effect on Slc37a4 mRNA expression in Sprague-Dawley rat liver at 15 mg/kg, ip administered twice daily every 12 hrs for 8 days by microarray analysis relative to control; settings: read-out: FC
# Rattus norvegicus [9] = test: Effect on Slc22a8 mRNA expression in Sprague-Dawley rat liver at 15 mg/kg, ip administered twice daily every 12 hrs for 8 days by qRT-PCR analysis relative to control; settings: in vivo
# FMO1 = test: Effect on FMO1 mRNA expression in Sprague-Dawley rat liver at 15 mg/kg, ip administered twice daily every 12 hrs for 8 days by microarray analysis relative to control; settings: read-out: FC
# Rattus norvegicus [10] = test: Effect on Slco1a4 mRNA expression in Sprague-Dawley rat liver at 15 mg/kg, ip administered twice daily every 12 hrs for 8 days by qRT-PCR analysis relative to control; settings: in vivo
# Rattus norvegicus [11] = test: Effect on Por mRNA expression in Sprague-Dawley rat liver at 15 mg/kg, ip administered twice daily every 12 hrs for 8 days by qRT-PCR analysis relative to control; settings: in vivo
# NR1I2 = test: Effect on NR1I2 mRNA expression in Sprague-Dawley rat liver at 15 mg/kg, ip administered twice daily every 12 hrs for 8 days by microarray analysis relative to control; settings: read-out: FC
# Slc27a5 = test: Effect on Slc27a5 mRNA expression in Sprague-Dawley rat liver at 15 mg/kg, ip administered twice daily every 12 hrs for 8 days by microarray analysis relative to control; settings: read-out: FC
# Abcb4 = test: Effect on Abcb4 mRNA expression in Sprague-Dawley rat liver at 15 mg/kg, ip administered twice daily every 12 hrs for 8 days by microarray analysis relative to control; settings: read-out: FC
smiles,measurement,setting,value
COc1ccc2c3c1O[C@H]1C(=O)CC[C@@]4(O)[C@@H](C2)N(C)CC[C@]314.Cl [OXYCODONE HYDROCHLORIDE],fold induction at 8 days,Slc39a4,1.6
same,fold induction at 8 days,CYP4a10,2
same,Activity,Rattus norvegicus [1],Active
same,fold induction at 8 days,CYP2e1,1.5
same,fold induction at 8 days,AhR,2.3
same,Activity,Rattus norvegicus [2],Active
same,fold induction at 8 days,CYP2b2 [3],5
same,fold induction at 8 days,Slc2a2,1.5
same,Activity,Rattus norvegicus [4],Active
same,fold induction at 8 days,CYP2b2 [5],6
same,fold induction at 8 days,Slc21a10,1.5
same,fold induction at 8 days,Slc17a5,1.5
same,fold induction at 8 days,Ces2,2.8
same,fold induction at 8 days,Slc38a4,1.8
same,Activity,Rattus norvegicus [6],Active
same,fold induction at 8 days,CYP27a1,1.9
same,fold induction at 8 days,CYP2a1,1.7
same,fold induction at 8 days,Yc2/Gsta5,7
same,fold induction at 8 days,Slc25a29,1.5
same,fold induction at 8 days,NR1I3,6.1
same,fold induction at 8 days,Ugt1a1,1.6
same,Activity,Rattus norvegicus [7],Active
same,Activity,Rattus norvegicus [8],Active
same,fold induction at 8 days,CYP3A1,12.2
same,fold induction at 8 days,Abcg5,3.6
same,fold induction at 8 days,Slc37a4,2
same,Activity,Rattus norvegicus [9],Active
same,fold induction at 8 days,FMO1,3.7
same,Activity,Rattus norvegicus [10],Active
same,Activity,Rattus norvegicus [11],Active
same,fold induction at 8 days,NR1I2,2.9
same,fold induction at 8 days,Slc27a5,1.6
same,fold induction at 8 days,Abcb4,1.5
